The subject of data set [1] is rats. Set-up: method as in ref IB. Particulars: ref IB; cited from earlier work.
For data set [2], the system named is Han Wistar rats. The note with it: rats 15 or 60 mg/kg/day and beagle dogs 20 mg/kg/day, 7 days; ref IB; cited from earlier work.
On the set-up of data set [3]: method as in ref IB. The note with it: rat microsomes; ref IB; cited from earlier work.
For data set [4], the system named is MCF7 cell line. The experiment in a line: Antibody validation, immunohistochemistry of treated cells, pCDK1/2/3. The class given is cell-based, human. The note with it: MCF7 cell line treated with samuraciclib. On the procedure: SUPPLEMENTARY TABLE 12: ANTIBODIES USED
Antibody Application Supplier & Description Dilution/ Validation […]
RNA pol II Immunohistoche Abcam Rabbit Immuno- Immunohistochemistry: pSer5 mistry (Fig 3); ab193467 monoclonal histochemistry: Positive nuclear staining Flow cytometry [EPR19015] to 1 in 8000 in normal spleen
(Supplementary RNA 0.02 µg/mL samples. Significant
Figure 5) polymerase II reduction in staining in CTD repeat Flow cytometry: MCF7 cell line treated
YSPTSPS 1 in 100 with samuraciclib. […]
intensity of labelling in […]
pCDK1/2/ Immunohistoche Abcam Rabbit 1 in 500 Immunohistochemistry:
3 mistry (Fig 3) ab201008 monoclonal 1.2 μg/mL Positive nuclear staining [EPR19546] to in normal tonsil samples.
T161) + CDK2 staining in MCF7 cell
(phospho T160) line treated with
Goat anti- Flow cytometry Abcam Polyclonal goat 1 in 1000 Flow cytometry: No Rabbit IgG (Supplementary ab150077 anti-rabbit IgG 2.0 μg/mL significant binding to H&L Figure 5) H&L peripheral blood
AlexaFluor conjugated to mononucleated cells in 488 AlexaFluor 488 absence of primary

Details of data set [5]: method as in ref IB. Particulars: ref IB, cited from earlier work.
On the set-up of data set [6]: method as in ref IB. The note with it: mouse hepatocytes; ref IB; cited from earlier work.
In data set [7] the test system is CYP3A4. Set-up: method as in ref IB. Particulars: human microsomes; ref IB; cited from earlier work.

What is called IC50 is the concentration at which inhibition is half-maximal.

For the molecule `CC(C)c1cnn2c(NCc3ccccc3)cc(NC[C@H]3CCNC[C@@H]3O)nc12` [samuraciclib, Samuraciclib], in data set [1], the “Effects on CNS (Irwin) and respiratory systems” value is given as “No significant effects”. Also, the Reticulocyte numbers entry in data set [2] is reported as “significant decrease”. Moreover, the Intrinsic clearance result in data set [3] is given as “high”. For the same molecule, in data set [4], the pCDK1/2/3 staining result was “Significant reduction in”. The Oral bioavailability result in data set [5] (rat) is given as “good oral bioavailability”. In data set [5] (rats), the “Apparent elimination half-life (T½)” value was 4.8 h, the Plasma clearance result is recorded as “high” and the Volume of distribution result was “high volume of distribution”. Further, the Overall turnover entry in data set [6] is listed as “low”. For the same molecule, the IC50 in data set [7] is […].

(Values after paper PMC10366102, “Dose escalation and expansion cohorts in patients with advanced breast cancer in a Phase I study of the CDK7-inhibitor samuraciclib” (Nature Communications, 2023).)
